# Experimental data from ChEMBL document CHEMBL5604062, “ASAP - ZIKV NS2B-NS3 protease fluorescence dose response” (2024).
# Target: Nonstructural protein 3 (Zika virus, UniProt A0A024AXB9)
# Assay: Functional biochemical assay to identify treatments for viral infectious disease that targets Zika NS2B-NS3 protease. Utilizing a direct enzyme activity measurement method, reading the fluorescence intensity is used to characterize the relative potency of inhibitors as IC50.
# Design: species or system PRVABC59
# Nonstructural protein 3, sequence (A0A024AXB9 whole entry): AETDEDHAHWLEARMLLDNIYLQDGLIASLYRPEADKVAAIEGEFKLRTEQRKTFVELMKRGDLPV
row,IC50 [µM],Compound
1,> 99.5,O=C(Nc1cc(Cl)cc(C(=O)Nc2ccc([C@H]3CNCCO3)cc2)c1)OCc1ccccc1
2,> 99.5,O=C(c1cc(Cl)ccc1NS(=O)(=O)c1ccc(Oc2ccccc2Cl)cc1)N1CCC[C@@H]1CO
3,46.9,Nc1nccc(C(=O)Nc2ccc3c(c2)CNC3)n1
4,46.7,O=C(O)c1cc(Cl)ccc1NS(=O)(=O)c1ccc(Nc2ccccc2F)nc1
5,82.4,NCc1cccc(NC(=O)[C@H](NC(=O)OCc2ccccc2)c2cccc(-c3ccccn3)c2)c1
6,32,O=S(=O)(Nc1ccc(Cl)cc1CN(CC1CC1)CC1CC1)c1ccc(Oc2ccccc2Cl)cc1
7,> 99.5,CCNC(=O)Nc1cc(Cl)cc(C(=O)Nc2cccc(-n3nn[nH]c3=O)c2)c1
8,8.42,N[C@H]1CCc2ccc(NC(=O)c3cc(Cl)cc(NC(=O)OCc4ccccc4)c3)cc21
9,> 99.5,CCn1c(=O)c(N2CCC[C@H]2c2nncs2)nc2ccccc21
10,> 99.5,N#Cc1ccc(S(=O)(=O)CCn2nc(-c3ccco3)oc2=O)cc1
11,> 25,C[C@H](NC(=O)c1cccc2c1CC(=O)N2)c1ccncc1F
12,> 99.5,Cc1ccc(NC(=O)c2cc(C3CC3)n(C)c2C)cc1CN
13,81.2,NC[C@H]1CC[C@H](NC(=O)[C@@H](NC(=O)OCc2ccccc2)c2ccc(OCc3ccccc3)cc2)CC1
14,2.64,O=C(Nc1cc(Cl)cc([C@H]2C[C@@H]2c2cccc(C3CCNCC3)c2)c1)OCc1ccccc1
15,> 99.5,O=C(O)c1cc(Cl)ccc1S(=O)(=O)N[C@H]1CC[C@@H](Oc2cnccn2)CC1
16,34.4,CC(C)Oc1ccccc1C(=O)N[C@H](C(=O)Nc1cccc(CN)c1)c1ccc(OCc2ccccc2)cc1
17,> 99.5,CCn1nccc1-c1cn(CC)c(=O)c(N2CC[C@@H](CO)C2)n1
18,> 99.5,N#CCc1cccc(NC(=O)c2cc(Cl)cc(NC(=O)OCc3ccccc3)c2)c1
19,24,CCCN1C(=O)[C@](C#N)(Nc2ccc3c(c2)CNC3)c2ccccc21
20,> 25,O=C(Nc1ccc2c(c1)CNC2)N1CC(F)(F)CC2(CCC2)C1
21,> 99.5,CC(C)Oc1cc(COc2cccnc2F)nc(N2CCNCC2)n1

row,IC50 [µM],Compound
1,93.8,Cc1cc(Cl)c(C)c(C(=O)O)c1NS(=O)(=O)c1ccc(Oc2ccccc2Cl)cc1
2,4.03,O=C(Nc1ccc2c(c1)CNC2)c1cccc2nc(C(F)(F)F)[nH]c12
3,> 99.5,NCc1cccc(Oc2ccc(S(=O)(=O)Nc3ccc(Cl)cc3C(=O)NCC(F)(F)F)cc2)c1
4,0.104,Cn1ccc(-c2cc(F)cc(C(=O)Nc3ccc4c(c3)CNC4)c2)cc1=O
5,> 99.5,Cc1cc(C(F)(F)F)nc(C(=O)Nc2cccc(CN)c2)n1
6,> 99.5,NCc1ccc(Oc2ccc(S(=O)(=O)Nc3ccc(Cl)cc3C(=O)O)cc2)cc1
7,> 99.5,N#Cc1cc(CN)cc([C@H]2C[C@@H]2c2cc(Cl)cc(NC(=O)OCc3ccccc3)c2)c1
8,> 99.5,C[C@H]1CN(C)C[C@H](C(=O)Nc2cccc(CN)c2)O1
9,0.356,CC(C)(C)c1cc(Br)cc(C(=O)Nc2ccc3c(c2)CNC3)c1
10,66.2,c1ccc2c(CN3CCC(c4ccn[nH]4)CC3)c[nH]c2c1
11,> 99.5,c1cnc2[nH]cc(C3CCN(Cc4c[nH]c5cnccc45)CC3)c2c1
12,> 99.5,Cc1cc(C(=O)Nc2cccc(CN)c2)cc(O)n1
13,32.4,O=C(Nc1cc(Cl)cc(-c2cc(C(=O)O)n(-c3ccc(F)cc3)n2)c1)OCc1ccccc1
14,> 99.5,NCc1cccc(NC(=O)c2cc(Cl)cc(Cl)c2O)c1
15,> 25,Cc1cc(C(=O)Nc2cc(-c3cccnc3)ccn2)c(C)n1C
16,> 99.5,NC1(c2cc(C(F)(F)F)ccc2NS(=O)(=O)c2ccc(Oc3ccccc3Cl)cc2)CC1
17,0.676,CCNC(=O)Nc1cc(Cl)cc(C(=O)Nc2cc(C)cc(CN)c2)c1
18,> 99.5,O=C(O)c1cc(Cl)ccc1NS(=O)(=O)c1ccc(OCc2ccncc2)cc1
19,> 25,CC1(C)C[C@H](C(=O)Nc2ccc3c(c2)C(=O)OC3)CCN1
20,> 99.5,O=S(=O)(Nc1ccc(Oc2ccccc2Cl)cc1)c1c[nH]c2ccc(Cl)cc12
21,> 99.5,O=C(Nc1ccc2c(c1)COC2)c1cc(Cl)cc2[nH]ncc12
